Tested on: M. tuberculosis H37Rv growth with meropenem, percent inhibition
Assay: beta-lactam sensitization of Mtb H37Rv, H37Rv (AID 434955)

SMILES	IC90 [µM]
COCCCn1c(=O)/c(=C\c2cccc(OC)c2OC)s/c1=C(/C#N)C(=O)Nc1ccc(C(=O)O)cc1	24.6
Cc1noc(NS(=O)(=O)c2ccc(N/C=C\C(=O)c3ccc4c(c3)OCO4)cc2)c1C	86
CCC(C)NCCOCCOc1ccc(Cl)c2ccccc12 (stereo not given)	50.7
CCOC(=O)c1c(NC(=O)COC(=O)c2ncc(Cl)c(Cl)c2Cl)sc(C(=O)N(C)C)c1C	27.7
CCCCN(CC)S(=O)(=O)c1ccc(C(=O)Nc2nnc(CSC)o2)cc1	31.7
CC1CCN(CC(CS(=O)(=O)c2ccc([N+](=O)[O-])cc2)N2CCC(C)CC2)CC1 (stereo not given)	31.5
C/C(CC(=O)NCc1ccco1)=N\NC(=O)CC#N	17.6
Cc1ccc(C)c(N2CCN(CC3CCCCC3)CC2)c1	52.4
CC(C)(C)NCCCOc1ccc(Cl)cc1C(C)(C)C	26.9
CC(C)(C)c1nn(-c2ccccc2)c2[nH]c(=O)c(CNc3ccc4c(c3)OCCO4)cc12	99.7
O=C(NN1C(=O)c2cc(Br)ccc2NC1c1ccccc1Cl)c1ccncc1 (stereo not given)	13.7
COc1ccccc1-c1cc(C(=O)Nc2c(C)n(C)n(-c3ccccc3)c2=O)no1	19.5
CC1(C)CC(CCNC(=O)CCl)(c2ccccc2)CCO1 (stereo not given)	8.14
CC(NC(=O)CSc1nc2ccccc2c(=O)[nH]1)c1ccccc1 (stereo not given)	60.9
OCCCc1cn(-c2ccccc2)c2ccccc12	60.8
Cn1c(=O)c2ccccc2n2c(CCl)nnc12	4.65
Nc1nc(Sc2ncccc2[N+](=O)[O-])n[nH]1	77.1
Cc1onc(-c2ccccc2)c1C(=O)Nc1ccc(-c2nnc3n2CCCCC3)cc1	38.6
CCOc1ccc(N2C(=O)CC(N)C2=O)cc1 (stereo not given)	52.4
O=C(CCN1CCOCC1)c1ccc(N2CCCCC2)cc1	72.7
Cc1ccc(C(C)C)c(OCc2ccc(C(=O)N/N=C/c3ccc(C(=O)O)cc3)cc2)c1	49.5
COc1ccc(C(=O)/C=C/c2ccc(O)cc2)c(O)c1CC=C(C)C	75.1

SMILES	IC90 [µM]
O=C(Oc1c(-c2ccccc2)c(=O)n2c3c(cccc13)CC2)c1ccc(F)cc1	34
CN(C)S(=O)(=O)c1ccc(C(=O)/C=C/c2cccnc2)cc1	12.1
Cc1nnnn1/C(=C\c1ccccc1)C(=O)OCC(=O)Nc1ccc(Cl)cc1F	25.5
Cc1nnnn1/C(=C\c1ccccc1)C(=O)OCC(=O)NC1CCCCC1	17.6
CCCCCn1c(=O)c(C(=O)Nc2cnccn2)c(O)c2ccccc21	13.8
CN(C)/N=C/c1ccc(/C=N/NC(N)=S)o1	43.3
CCN(CC)CCCNC(=O)c1c(O)c2ccccc2n(Cc2ccccc2)c1=O	13.8
CC1CCCN(C(=O)C2CCN(c3ncnc4c3nc3n4CCCCC3)CC2)C1 (stereo not given)	49.7
Cc1cc(Br)ccc1NC(=O)CN1C(=O)C2CC=CCC2C1=O (stereo not given)	38.7
COc1ccc(-c2cc(=Nc3ccc(C)cc3)c3ccccc3o2)cc1	98.3
Cc1cc(=S)nc(-c2ccccn2)[nH]1	19.7
CCN(CC)C(=O)C1CCCN(c2ccc([N+](=O)[O-])cc2/C=N/NC(=O)c2cccc(O)c2)C1 (stereo not given)	55.3
Cc1ccccc1OCC(=O)N/N=C/c1cccc(Oc2ccc([N+](=O)[O-])cc2[N+](=O)[O-])c1	5.4
Cc1ccc(C)c(N2CCN(CC3CC=CCC3)CC2)c1 (stereo not given)	60.7
CCOC(=O)COc1ccc2nsnc2c1	26
COC(=O)C1=C(C)NC(=O)/C1=C\c1cc(C)n(-c2c(C)cccc2C)c1C	99.8
COc1cc(/C=C/c2ccc3cccc([N+](=O)[O-])c3n2)ccc1OCC(=O)O	12
CCCn1nnnc1NC(=O)COc1ccc(Cl)cc1C	42.9
Cc1cc(C)cc(OCC(=O)NNC(=O)c2ccccn2)c1	16
c1ccc(-c2n[nH]c3c2CCC3)cc1	46.3
C=C(C)C1Cc2c(C)nn(-c3cccc4ccccc34)c2C1 (stereo not given)	47.4
COc1ccc(C(=O)NC(=S)Nc2ccc(S(=O)(=O)Nc3cc(C)on3)cc2)cc1OC	29

SMILES	IC90 [µM]
O=C(COC(=O)c1ccc([N+](=O)[O-])s1)NCc1ccccc1	39.4
COCCSc1nc2sc3c(c2c(=O)n1-c1ccccc1)CCN(C)C3	53.3
COc1cc(C(=O)N/N=C/c2ccc(OC(=O)c3cccc(C)c3)cc2)ccc1O	53.4
C/C(=N/NC(=O)c1ccccn1)c1ccncc1	23.1
CC1CCc2c(sc(NC(=O)CCCn3cnc([N+](=O)[O-])n3)c2C(N)=O)C1 (stereo not given)	90.4
C/C(=N\NC(=O)c1ccncc1)c1c(O)n(-c2ccccc2)c(=O)[nH]c1=O	3.94
O=C(CC12CC3CC(CC(C3)C1)C2)NCc1ccc(F)cc1	10.4
O=C(NCCC1=CCCCC1)c1ccc(Cl)c([N+](=O)[O-])c1	30.2
C=CCNC1=C(Cl)C(=O)N(c2cccc(Cl)c2Cl)C1=O	30.2
CN1C/C(=N\S(=O)(=O)c2ccccc2)N(C)C1=O	33.7
Cc1nn(-c2ccccc2)c(Cl)c1CN(C(=O)CCl)c1cccc2ccccc12	48.2
Cn1c(/C=N/c2nc3ccccc3[nH]2)nc2ccccc21	4.17
COC(=O)CNC(c1ccccc1Cl)c1cc(Br)ccc1NC(=O)CCN1CCOCC1 (stereo not given)	34.3
COc1ccc(NC(C)C(=O)N/N=C/c2ccc([N+](=O)[O-])s2)cc1 (stereo not given)	4.79
Cc1cc(C(=O)CN2C(=O)NC(C)(CC(C)C)C2=O)c(C)n1-c1ccc2c(c1)OCO2 (stereo not given)	96.4
CCOC(=O)CNC(=O)/C(=C\c1ccc(F)cc1)NC(=O)c1ccccc1	35.1
Cc1cccc(C)c1OCC(=O)NNC(=O)CNC(=O)c1ccc(OC(F)F)cc1	98.1
COc1cc(OC)cc(-c2cc3ccc(OC)cc3cn2)c1	76.9
CC(=O)Nc1ccc(SCC(=O)c2cc(C)n(C)c2C)cc1	53.6
O=c1oc(-c2ccccc2F)nc2scc(-c3ccccc3)c12	3.05
Cc1nnc(SCC2=C(C(=O)O)N3C(=O)C(NC(=O)COc4ccc(F)cc4)C3SC2)s1 (stereo not given)	9.33
O=S(=O)(Cc1ccccc1)c1cnc2ccccc2n1	48.6

SMILES	IC90 [µM]
Cc1cc(C)c(-c2c(O)c3ccccc3n(C)c2=O)c(C)c1	42.2
O=C(N/N=C/c1c(O)n(Cc2ccc(F)cc2)c(=S)[nH]c1=O)c1ccncc1	9.8
N#Cc1c(SCC(=O)O)nc(N2CCCCC2)c2c1CCCC2	27
COc1ccc2c(c1)c(C(C)=O)c(C)n2-c1ccccc1	6.92
CC(C)CC(=O)N1CCN(c2ccc([N+](=O)[O-])c(NCc3ccccc3)c2)CC1	48.6
CC1CCN(C(=S)NC(=O)c2ccccc2)CC1	13.6
O=C(O)CSc1ncnc2c1sc1nc(-c3ccccc3)c3c(c12)CCC3	14.2
Cc1ccc(C)c(CSc2nnc(C)c(=O)n2N)c1	20.4
COC(=O)Cn1c2ccccc2c2nc(C)sc21	27.8
COc1cc(C(=S)N2CCOCC2)ccc1OC(=O)c1ccc([N+](=O)[O-])cc1[N+](=O)[O-]	5.92
CCCCNC(=O)c1onc(CSc2ccccc2C)c1C(=O)O	50.6
C/C(=N\NC(=S)Nc1ccccc1C)c1ccc(O)cc1	7.97
COc1cccc(/C=N/NC(=O)NC23CC4CC(CC(C4)C2)C3)c1O	26.8
O=C(CSC1CS(=O)(=O)c2cc([N+](=O)[O-])ccc21)NNC(=O)c1ccccc1 (stereo not given)	13.3
O=C1S/C(=C\C=C\c2ccco2)C(=O)N1c1ccccc1	77.6
CCOC(=O)C1CSC(CC(=O)Nc2ccc(Cl)c(Cl)c2)C(=O)N1 (stereo not given)	35.4
S=C(NNc1ccc2ccccc2c1)NC1CCCCC1	41.3
Cc1ccc(-c2[nH][nH]c(=O)c(=O)c2N=Nc2ccccc2)cc1	86.2
O=C1OC(c2ccco2)=N/C1=C\c1ccc(-c2cccc(C(F)(F)F)c2)o1	53.4

From PubChem BioAssay AID434955 (Southern Research Specialized Biocontainment Screening …, 2010)
